Experimental data as given in a melting point compilation (Tetko et al.; mined from patent text by program, amines drawn as free bases though some values may be those of a salt).

SMILES | melting point
Cc1[nH]ncc1C(=O)O | 223 °C
Cc1c(SCc2ccco2)ccnc1CO | 60 to 62 °C
CC(CCc1ccc(F)cc1)NCc1c(CO)ccc(O)c1CO (stereo unspecified) | 101 to 103 °C
O=C1CCc2c(-c3ccncc3)sc(-c3cccnc3)c21 | 214 to 216 °C
C[C@H](N[C@@H](CCc1ccccc1)C(=O)O)C(=O)N1C(=O)N(C)C[C@H]1C(=O)O | 240 °C
CCOC(=O)CCc1cc(CCC(=O)O)cc(Cc2cccnc2)c1 | 62 to 64 °C
Fc1ccc2[nH]cc(CC3CCN(CC4COc5ccc6ncccc6c5O4)CC3)c2c1 (stereo unspecified) | 184 °C
FC(F)C(F)(F)Sc1nc(-c2cccs2)c(-c2cccs2)[nH]1 | 162 to 164 °C
CCOC(=O)CC1(Cc2ccncc2)C(=O)N(N2CCOCC2)c2ccccc21 (stereo unspecified) | 168 °C
N#Cc1ccc2ccccc2c1O | 182 to 183 °C
O=C(CCl)Nc1ccc2[nH]c(=O)c3ccccc3c2c1 | 300 to 303 °C
CCOC(=O)c1c(C)nc2cc(OC)c(OC)cc2c1-c1ccc(OC)c(OC)c1 | 147 to 148 °C
O=C(O)CCc1ccc(OCCSCCO)cc1 | 64 to 65 °C
COc1cc(C=Cc2ccc(Cl)cc2)ccc1O | 121 to 124 °C
C=CCNC(=O)N1CC(Oc2cccc(Cl)c2)C1 | 87 to 89 °C
Cc1cc(C)c(C(C#N)c2nc(C)nc(Cl)c2C)c(C)c1 (stereo unspecified) | 100 to 102 °C
CCc1cc(O)cc(=O)o1 | 106 to 108 °C
O=c1cc2c(nn1-c1ccc(Cl)cc1)-c1cccc(Cl)c1S(=O)CC2 (stereo unspecified) | 217 to 219 °C
CCOC(=O)N1CCCc2cc(C(=O)CCCl)ccc21 | 78 to 79 °C
c1ccc(C2Cn3c(nc4cc5ccccc5cc43)S2)nc1 (stereo unspecified) | 198 °C
CCC(OC)C(=O)Nc1ccc(C2=NNC(=O)CC2C)cc1 (stereo unspecified) | 151 to 152 °C
Cc1cnc2c(NC(=O)c3c(Cl)cccc3Cl)cccc2c1OCC=Cc1ccccc1 | 169 to 171 °C
Cc1cc(C)c2c(c1)c(-c1ccccc1Cl)c(NC(=O)Nc1c(C)cccc1C(C)C)c(=O)n2C | 203 to 204 °C
ClCCN1c2cc3c(cc2C(c2cccs2)=NCC1CCl)OCCO3 (stereo unspecified) | 184 to 187 °C
CN1C(=O)CCC1(O)c1ccc(Cl)c(S(N)(=O)=O)c1 (stereo unspecified) | 147 to 149 °C
CCN(CC)c1ccc2c(c1)[C@@H]1[C@H](C2)c2ccc(N(CC)CC)cc2N1C(C)=O (relative stereo) | 137 to 138 °C

SMILES | melting point
COc1ccc(CN(Cc2ccc(OC)cc2)c2nc(-c3ccccc3)c(-c3ccc(=O)n(C(C)C)n3)nc2C#N)cc1 | 207 to 209 °C
CN(C)c1nccc(-c2ccc(-c3ccc(N(c4ccccc4)c4ccccc4)cc3)cc2)n1 | 140 to 141 °C
CC(OCc1ccc(-c2ccc(Cl)cc2)cc1)(C(=O)O)c1ccccc1 (stereo unspecified) | 125 to 126 °C
COC(=O)c1ccc(OCCNC(=O)C2Cc3ccccc3N2S(=O)(=O)c2ccc(-c3cccc(C(F)(F)F)c3)cc2)c(Cl)c1 (stereo unspecified) | 84 to 88 °C
Nc1c2c(nc3ccccc13)CCCC2N1CCC(c2ccccc2)CC1 (stereo unspecified) | 189 to 190 °C
CC(=CC(=O)Nc1ccc(C(=O)O)cc1)c1cc(C(C)C)c(C(C)C)o1 | 232 to 235 °C
CCCCCN(CCC12CC3CC(CC(C3)C1)C2)C(=O)NCCc1ccccn1 | 80 to 100 °C
Oc1nc(Cc2ccc(F)cc2)ncc1F | 169 to 170 °C
O=C(CCCCN1CCC(Cc2ccccc2)CC1)c1ccc2c(c1)-c1ccc(C(=O)CCCCN3CCC(Cc4ccccc4)CC3)c3cccc-2c13 | 126 to 128 °C
CCCCCCCCCCCCCC(O)c1nc2ncccc2o1 (stereo unspecified) | 52 to 54 °C
COC(=O)c1ccc(O)c(C=O)c1 | 80 to 81 °C
CCOC(=O)CC[C@H](NC(=O)c1ccc(NS(=O)(=O)c2cc3c(cc2Br)CCc2nc(N)[nH]c(=O)c2-3)cc1)C(=O)OCC | 175 °C
O=c1[nH]c2ccccc2n1C1=CCN(C2CCC(c3ccc(F)cc3)(c3ccc(F)cc3)CC2)CC1 | 235 to 238 °C
CCOC(=O)c1ccc(OCC(O)CC)cc1 (stereo unspecified) | 52 to 52.5 °C
COc1ccc2c(c1)CC(=O)NC2c1ccc(Cl)cc1 (stereo unspecified) | 200 to 201 °C
COc1ccccc1NCN1C(=O)CSC1=O | 88.5 to 91 °C
Cn1c(-c2ccc(C(=O)O)cc2)ccc1-c1ccc(C(F)(F)F)cc1 | 260 to 261 °C
Cc1c(C)c2c(c(C)c1O)C(=O)CC(CCC(C)CCCC(C)C)(COc1ccc([N+](=O)[O-])cc1)O2 (stereo unspecified) | 121 to 123 °C
Cc1ccc(S(=O)(=O)N=CN(C)C)cc1Br | 162 °C
CN(C)CCOC(=O)c1cc(F)ccc1Nc1ccnc2c(Cl)cccc12 | 121 to 122 °C
CCOC(=O)Cn1c(=O)n(Cc2ccc(Cl)cc2)c(=O)c2c(C)c(C)sc21 | 151 to 152 °C
CCOC(=O)c1cnc2ccc(Cl)cc2c1O | > 260 °C
CC(C)(C)CC(=O)NCc1ccc2c(c1)C(=O)N(C1CCC(=O)NC1=O)C2=O (stereo unspecified) | 232 to 234 °C
CCCCc1cc(C=CC(=O)OC)c[nH]1 | 65 to 67 °C
COc1ccc(Cn2c(=O)c3ccc4ccccc4c3c3c4ccccc4ccc32)cc1 | 229 °C
